According to publication PMC12785511, “Integrative Profiling for BBB Permeability Using Capillary Electrochromatography, Experimental Physicochemical Parameters, and Ensemble Machine Learning” (International Journal of Molecular Sciences, 2025):
Read-outs that look alike come from different tables or passages of the source.

Experiments:
[1] = Sirius T3 automated potentiometric titrations with n-octanol, log P / log D; details: for logP / logD: n-octanol/water; for Log D7.4: calculated based on the experimentally obtained pKa and log P data
[2] = cited from earlier work
[3] = Sirius T3 automated potentiometric (pH-metric) titrations, pKa; details: ionic strength adjusted (ISA) water ([…] KCl)
physchem = details: for logD: pH 7.4
[4] = open-tubular capillary electrochromatography (CEC), permeability k′ parameter; format: in vitro ADME; details: pH 7.4 HEPES buffer 40 mM, migration times in coated and uncoated capillary, mean ± SD of three independent experiments
[5] = experimental in vivo measurements from rats, data retrieved from literature
[6] = pKa ± SD, […] ISA water or Yasuda–Shedlovsky extrapolation from methanol cosolvent, value used for regression

Structure (SMILES)	logP [1]	logD ([1]; pH 7.4)	Log BB [2, 5]	pKa [3, 6]	k′ ± SD (CEC) [4]	further results
C[C@H]1COc2c(N3CCN(C)CC3)c(F)cc3c(=O)c(C(=O)O)cn1c23 [levofloxacin]	0.82 ± 0.01	0.77	−0.70			
O=C1CC2(CCCC2)CC(=O)N1CCCCN1CCN(c2ncccn2)CC1 [buspirone]				7.62		
COc1ccc2c3c1O[C@H]1C[C@@H](O)C=C[C@@]31CCN(C)C2 [galanthamine]						logP (physchem): 1.15; logD (physchem): 0.18; Log BB ([2]; rat, in vivo): 0.00
CCC1(c2ccccc2)C(=O)NC(=O)NC1=O [phenobarbital]					−0.01824 ± 0.00855	logD (physchem): 0.98; Log BB ([2]; rat, in vivo): −0.12
CN(C)CCc1c[nH]c2ccc(C[C@H]3COC(=O)N3)cc12 [zolmitriptan]	1.19 ± 0.01	-1.01	−1.40	9.6 ± 0.05	−0.00882 ± 0.00356	
CN1CCN(CCCN2c3ccccc3Sc3ccc(C(F)(F)F)cc32)CC1 [trifluoperazine]	6.14 ± 0.01	5.53	1.44		0.2028 ± 0.00151	
Cc1ccc(/C(=C\CN2CCCC2)c2ccccn2)cc1 [triprolidine]	3.87 ± 0.01		0.78	9.39 ± 0.06	0.01006 ± 0.00233	Log D7.4 ([1]; pH 7.4): 1.88
CNCCc1ccccn1 [betahistine]	0.49 ± 0.01	-1.95	−0.30	9.84	0.03582 ± 0.00587	
COc1ccc(CN(CCN(C)C)c2ccccn2)cc1 [mepyramine]	2.73 ± 0.02	1.48		8.71 ± 0.05		
CC(C)(C)NCC(O)c1ccc(O)c(CO)c1 (stereo not drawn) [salbutamol]	0.3 ± 0.04		−1.03	9.6 ± 0.01	−0.0103 ± 0.00502	Log D7.4 ([1]; pH 7.4): −1.90
O=C(O)Cc1ccccc1Nc1c(Cl)cccc1Cl [diclofenac]	4.33 ± 0.01	1.26	−1.70		0.00802 ± 0.0032	
O=C(O)c1ccccc1O [salicylic acid]	2.31 ± 0.01	-0.98			0.02255 ± 0.00676	
CC(C)NCC(O)COc1ccc(CC(N)=O)cc1 (stereo not drawn) [atenolol]					0.00183 ± 0.00051	
Cc1cn([C@H]2C[C@H](N=[N+]=[N-])[C@@H](CO)O2)c(=O)[nH]c1=O [zidovudine]	0.09 ± 0.01	0.09		9.51	0.00428 ± 0.00056	
COc1ccc2cc([C@H](C)C(=O)O)ccc2c1 [naproxen]			−1.70		0.0105 ± 0.0046	
COc1ccc2c(c1)c(CC(=O)O)c(C)n2C(=O)c1ccc(Cl)cc1 [indomethacin]	6.31 ± 0.12	3.92	−1.26		0.01869 ± 0.00624	
CCN(CC)CCNC(=O)c1cc(Cl)c(N)cc1OC [metoclopramide]			0.08		−0.00563 ± 0.00136	
CNCCC=C1c2ccccc2CCc2ccccc21 [nortriptyline]	4.29 ± 0.01	1.79	1.04	10.05 ± 0.03	−0.01133 ± 0.0021	
C=C[C@H]1C[N@@]2CC[C@H]1C[C@@H]2[C@@H](O)c1ccnc2ccc(OC)cc12 [quinidine]			0.33		0.0034 ± 0.0004	
CNCCCN1c2ccccc2CCc2ccccc21 [desipramine]			1.20		−0.01523 ± 0.00343	
CSc1ccc2c(c1)N(CCC1CCCCN1C)c1ccccc1S2 (stereo not drawn) [thioridazine]	5.38 ± 0.03	3.54	0.24	9.25 ± 0.01		
CN(C)CCC=C1c2ccccc2CCc2ccccc21 [amitriptyline]	4.68 ± 0.02	2.84	1.30	9.23 ± 0.08	0.00004 ± 0.00001	
COc1ccc(C(CN(C)C)C2(O)CCCCC2)cc1 (stereo not drawn) [venlafaxine]	2.97	0.7	0.48	9.67 ± 0.02	−0.01411 ± 0.00205	
CN1CCN2c3ccccc3Cc3ccccc3C2C1 (stereo not drawn) [mianserin]	3.74 ± 0.01	3.5	0.99	7.25 ± 0.03	−0.02148 ± 0.00155	
CN(C)CCCN1c2ccccc2CCc2ccccc21 [imipramine]			1.30			

Structure (SMILES)	logP [1]	logD ([1]; pH 7.4)	Log BB [2, 5]	pKa [3, 6]	k′ ± SD (CEC) [4]	further results
CC(C)Cc1ccc(C(C)C(=O)O)cc1 (stereo not drawn) [ibuprofen]	3.8	1.07			−0.0369 ± 0.00011	
CN(C)CCCN1c2ccccc2Sc2ccccc21 [promazine]	4.54	2.55	1.23	9.39	−0.01399 ± 0.00228	logD ([1]; pH 1): 0.83; logD ([1]; pH 1.2): 0.83; logD ([1]; pH 2): 0.83; logD ([1]; pH 3): 0.83; logD ([1]; pH 4): 0.84; logD ([1]; pH 5): 0.91; logD ([1]; pH 6): 1.32; logD ([1]; pH 6.5): 1.71; logD ([1]; pH 7): 2.17; logD ([1]; pH 8): 3.14; logD ([1]; pH 9): 4; logD ([1]; pH 10): 4.45; logD ([1]; pH 11): 4.53; logD ([1]; pH 12): 4.54
CC(C)NCC(O)COc1cccc2ccccc12 (stereo not drawn) [propranolol]			0.85		0.00202 ± 0.00061	
CCCCC1C(=O)N(c2ccccc2)N(c2ccccc2)C1=O [phenylbutazone]			−0.52		0.00083 ± 0.00015	
CN(C)C(=O)C(CCN1CCC(O)(c2ccc(Cl)cc2)CC1)(c1ccccc1)c1ccccc1 [loperamide]			0.70		0.0147 ± 0.00102	logD (physchem): 3.21
COc1ccc2c3c1O[C@H]1[C@@H](O)C=C[C@H]4[C@@H](C2)N(C)CC[C@@]341 [codeine]					−0.01188 ± 0.00888	logP (physchem): 1.14 ± 0.01; logD (physchem): 0.26; Log BB ([2]; rat, in vivo): 0.55
O=C(CCCN1CCC(O)(c2ccc(Br)cc2)CC1)c1ccc(F)cc1 [bromperidol]	3.87 ± 0.05	2.81	1.38	8.45 ± 0.1	−0.00795 ± 0.00034	
CC(=O)Oc1ccccc1C(=O)O [acetylsalicylic acid]	1.31 ± 0.01	-2.73	−1.30		0.03441 ± 0.00987	
O=C(CCCN1CCC(O)(c2ccc(Cl)cc2)CC1)c1ccc(F)cc1 [haloperidol]	4.37 ± 0.08	3.18		8.66 ± 0.08	−0.00906 ± 0.00138	
CCC1(C2=CCCCC2)C(=O)NC(=O)NC1=O [cyclobarbital]					0.00186 ± 0.00088	logD (physchem): 1.16; Log BB ([2]; rat, in vivo): −0.30
OCCOCCN1CCN(C(c2ccccc2)c2ccc(Cl)cc2)CC1 (stereo not drawn) [hydroxyzine]	3.73 ± 0.03	3.34	0.90	7.66 ± 0.04	−0.00058 ± 0.00031	
O=C(c1ccccc1)c1ccc2n1CCC2C(=O)O (stereo not drawn) [ketorolac]	2.9 ± 0.04	-0.05	−2.00	3.64 ± 0.06	0.02127 ± 0.00131	
CN1[C@@H]2CC[C@H]1C[C@@H](OC(=O)C(CO)c1ccccc1)C2 (stereo partly drawn) [atropine]					0.0044 ± 0.00309	
CN(C)CCCN1c2ccccc2Sc2ccc(Cl)cc21 [chlorpromazine]	5.1 ± 0.03	3.43		9.07 ± 0.01		
Fc1ccc([C@@H]2CCNC[C@H]2COc2ccc3c(c2)OCO3)cc1 [paroxetine]	3.39 ± 0.04		0.48	9.76 ± 0.08	0.02144 ± 0.00689	
CNC(=C[N+](=O)[O-])NCCSCc1ccc(CN(C)C)o1 [ranitidine]	0.34 ± 0.02	-0.75	−1.23	8.43 ± 0.01	−0.00256 ± 0.00041	
CCN(C)C(=O)Oc1cccc([C@H](C)N(C)C)c1 [rivastigmine]					−0.00018 ± 0.00009	logD (physchem): 0.66
OCCN1CCN(CCCN2c3ccccc3Sc3ccc(C(F)(F)F)cc32)CC1 [fluphenazine]	5.12 ± 0.06	4.58	1.51	7.79 ± 0.07	0.111 ± 0.00192	
CN(C)CCCC1(c2ccc(F)cc2)OCc2cc(C#N)ccc21 (stereo not drawn) [citalopram]			0.48		0.00405 ± 0.00229	
CN1CCN(C2=Nc3cc(Cl)ccc3Nc3ccccc32)CC1 [clozapine]	3.92 ± 0.1	3.52	0.60		0.00693 ± 0.00245	
Cc1nc2n(c(=O)c1CCN1CCC(c3noc4cc(F)ccc34)CC1)CCCC2 [risperidone]	3.09 ± 0.03				0.00698 ± 0.00377	
O=c1n(CCCN2CCN(c3cccc(Cl)c3)CC2)nc2ccccn12 [trazodone]	2.98	2.88	0.30	6.83 ± 0.04	−0.0108 ± 0.00292	
S=C(NC1CCCCC1)N1CCC(c2cnc[nH]2)CC1 [thioperamide]			−0.16		0.01849 ± 0.00363	logD (physchem): 2.27
CC(C)NCC(O)COc1cccc2[nH]ccc12 (stereo not drawn) [pindolol]			0.30			pKa [3]: 9.62 ± 0.07
Clc1cccc(Cl)c1N=C1NCCN1 [clonidine]			0.11		0.00321 ± 0.00046	pKa [3]: 8.12 ± 0.01
